Laboratory results as given in ChEMBL document CHEMBL1201862, “PubChem BioAssay data set” (2004).
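Cultured in 96-well plates, cells were exposed to test compound for 48 hours across five concentrations. At the GI50, growth is halved.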 Calls of active or inactive are those of the source. Cut-off read from the data, not from the text of the source: active = GI50 up to about 1.1 µM and inactive = higher.

What was measured:
Assay in all cases: DTP human tumour cell line panel, 48 h
OVCAR-5 = tested on: OVCAR-5
CCRF-CEM = tested on: CCRF-CEM
ACHN = tested on: ACHN
SF-295 = tested on: SF-295
SK-MEL-28 = tested on: SK-MEL-28
M14 = tested on: M14
RXF 393 = tested on: RXF 393
NCI-H460 = tested on: NCI-H460
HOP-92 = tested on: HOP-92
EKVX = tested on: EKVX
A498 = tested on: A498
MOLT-4 = tested on: MOLT-4
RPMI-8226 = tested on: RPMI-8226
KM12 = tested on: KM12
A549 = tested on: A549
SK-OV-3 = tested on: SK-OV-3
HL-60 = tested on: HL-60

Row | Structure (SMILES) | GI50 (OVCAR-5) | GI50 (CCRF-CEM) | GI50 (ACHN) | GI50 (SF-295) | GI50 (SK-MEL-28) | GI50 (M14) | GI50 (RXF 393) | GI50 (NCI-H460) | GI50 (HOP-92) | GI50 (EKVX) | GI50 (A498) | GI50 (MOLT-4) | GI50 (RPMI-8226) | GI50 (KM12) | GI50 (A549) | GI50 (SK-OV-3) | GI50 (HL-60)
1 | O=C(/N=C(\Nc1ccccc1)SCCS/C(=N/C(=O)c1cccs1)Nc1ccccc1)c1cccs1 | > 100 µM (inactive) | 34.8 µM (inactive) | 43.6 µM (inactive) | 52.7 µM (inactive) | 49.9 µM (inactive) | 55.8 µM (inactive) | 22.6 µM (inactive) | 31.6 µM (inactive) | 6.37 µM (inactive) | 92.5 µM (inactive) | 56.9 µM (inactive) | 24 µM (inactive) | 36.8 µM (inactive) | 41 µM (inactive) | 41.8 µM (inactive) |  | 
2 | CCCCCCCCCCCCC(Br)C(C)=O (stereo not drawn) | > 100 µM (inactive) | > 100 µM (inactive) | > 100 µM (inactive) | > 100 µM (inactive) | > 100 µM (inactive) | > 100 µM (inactive) | > 100 µM (inactive) | > 100 µM (inactive) | > 100 µM (inactive) | > 100 µM (inactive) | > 100 µM (inactive) |  |  | > 100 µM (inactive) | > 100 µM (inactive) | > 100 µM (inactive) | > 100 µM (inactive)
3 | COc1ccc(/C=N/N=C(\N)NO)c(Cl)c1O | 1.91 µM (inactive) | 14.7 µM (inactive) | 14.9 µM (inactive) | 4.9 µM (inactive) | 9.57 µM (inactive) |  | 16.5 µM (inactive) |  | 35.2 µM (inactive) | 10 µM (inactive) |  | 3.43 µM (inactive) | 36 µM (inactive) | 12.5 µM (inactive) | 5.43 µM (inactive) | 22 µM (inactive) | 
4 | Cc1ccccc1NC(=O)/C=N/O | > 100 µM (inactive) | < 0.01 µM (active) | > 100 µM (inactive) | > 100 µM (inactive) | > 100 µM (inactive) | > 100 µM (inactive) | > 100 µM (inactive) |  |  | 22 µM (inactive) | > 100 µM (inactive) | > 100 µM (inactive) | > 100 µM (inactive) | > 100 µM (inactive) | > 100 µM (inactive) | > 100 µM (inactive) | 0.429 µM (active)
5 | O=C1C(Cl)C(c2ccccc2O)N1n1cnc2ccccc2c1=O (stereo not drawn) | > 100 µM (inactive) | 19.8 µM (inactive) | 39.4 µM (inactive) | 53.6 µM (inactive) | 70.1 µM (inactive) | 80.2 µM (inactive) | 22.7 µM (inactive) | 35.2 µM (inactive) |  | 23.9 µM (inactive) |  | 27.6 µM (inactive) | 6.75 µM (inactive) | > 100 µM (inactive) | 63.1 µM (inactive) | 25.1 µM (inactive) | 13 µM (inactive)
6 | COC1CCC(OS(C)(=O)=O)C(CO)O1 (stereo not drawn) | > 100 µM (inactive) | > 100 µM (inactive) | > 100 µM (inactive) | > 100 µM (inactive) | > 100 µM (inactive) | > 100 µM (inactive) | > 100 µM (inactive) | > 100 µM (inactive) | > 100 µM (inactive) | > 100 µM (inactive) |  | > 100 µM (inactive) |  | > 100 µM (inactive) | > 100 µM (inactive) | > 100 µM (inactive) | > 100 µM (inactive)
7 | O=C(N/C(=C\c1ccc([N+](=O)[O-])cc1)c1nc2cc(Cl)ccc2[nH]1)c1ccccc1 | 11.3 µM (inactive) | 18.6 µM (inactive) | 22 µM (inactive) | 23.8 µM (inactive) | 22.9 µM (inactive) | 17.3 µM (inactive) | 21 µM (inactive) |  | 14 µM (inactive) | 29.4 µM (inactive) |  | 10.1 µM (inactive) |  | 21.1 µM (inactive) | 20.8 µM (inactive) | 39.4 µM (inactive) | 17.2 µM (inactive)
8 | CCNC(=O)COc1ccc(Cl)cc1Cl | > 100 µM (inactive) |  | > 100 µM (inactive) | > 100 µM (inactive) | > 100 µM (inactive) | > 100 µM (inactive) |  | > 100 µM (inactive) | > 100 µM (inactive) | 55.7 µM (inactive) | > 100 µM (inactive) | > 100 µM (inactive) | > 100 µM (inactive) | > 100 µM (inactive) | > 100 µM (inactive) | > 100 µM (inactive) | > 100 µM (inactive)
9 | CS/C(=N\c1ccccc1Cl)NC(=O)c1ccc(Br)cc1 | > 100 µM (inactive) | > 10 µM (inactive) | > 100 µM (inactive) | 59.3 µM (inactive) | 25.9 µM (inactive) | 24.6 µM (inactive) | 31.3 µM (inactive) | > 100 µM (inactive) | < 0.01 µM (active) | > 100 µM (inactive) |  | 18.5 µM (inactive) | 55.5 µM (inactive) | > 100 µM (inactive) | 55.8 µM (inactive) | 63 µM (inactive) | 34 µM (inactive)
